# Measured values: patent publication US20040132803A1, “Agent for the treatment of overactive bladder” (priority 2003, published 2004)
# How the values were obtained:
# Format in all cases: cell-based, rat
# DRG cells = assay: Current-clamp membrane potential in DRG cells; conditions: for Membrane potential (mV): current clamp
# Protocol: (§1) Experiments were performed on adult female Sprague Dawley rats. A population of unidentified DRG cells and a population of DRG neurons that innervate the urinary bladder were labeled by retrograde axonal transport of the fluorescent dye, Fast Blue (4% w/v) (Polyloy, Gross Umstadt, Germany), injected into the wall of the bladder in halothane-anesthetized animals 7 days before the dissociation. The dye was injected with a 28 gauge needle at three to six sites on the dorsal surface of the organ (5-6 μL per site, total volume of 20-30 μL). Each injection site was washed with saline to minimize contamination of adjacent organs with the dye.
# (§2) Freshly dissociated neurons from DRG were prepared from halothane-anesthetized animals. L6 and S1 DRG were dissected from animals and then dissociated in a shaking bath for 25 minutes at 35° C. with 5 mL DMEM (Sigma) containing 0.3 mg/mL trypsin (Type 3, Sigma), 1 mg/mL collagenase (Type 1, Sigma), and 0.1 mg/mL deoxyribonuclease (Type 4, Sigma). Trypsin inhibitor (Type 2a, Sigma) was then added thereto to neutralize the activity of trypsin. Individual DRG cell bodies were isolated by trituration and then plated on a poly-L-lysine-coated 35 mm Petri dishes.
# (§3) Dye-labeled primary afferent neurons that innervate the urinary bladder were identified using an inverted phase-contrast microscope (Nikon, Tokyo, Japan) with fluorescent attachments (UV-1A filter; excitation wavelength, 365 nm). Gigaohm-seal whole-cell recordings were performed within 6-8 hours after cell dissociation at room temperature (20-22° C.) on each labeled neuron in a culture dish that usually contained three to seven labeled cells among a few hundred unlabeled neurons. The internal solution contained (in mmol/L): KCl 140, CaCl2 1, MgCl2 2, EGTA 11, HEPES 10, Mg-ATP 2, and Tris-GTP 0.4 adjusted to pH 7.4 with KOH. Patch electrodes had resistances of 1-4 M Ω when filled with the internal solution. Neurons were superfused at a flow rate of 1.5 mL/minutes with an external solution containing (in mmol/L): NaCl 150, KCl 5, CaCl2 2.5, MgCl2 1, HEPES 10, and D-glucose 10, adjusted to pH 7.4 with NaOH. All recordings were made with an Axopatch-1D patch-clamp amplifier (Axon Instruments, Foster City, Calif.), and data were acquired and analyzed by PCLAMP software (Axon Instruments).
# In current-clamp recordings, membrane potential of DRG cells were measured before and after compound applications. The membrane potentials were normalized to control (before addition of the compound).
# Na^+ currents = assay: Voltage-clamp inward Na^+ currents in DRG cells
# Protocol: as §1, with “First and second series of the experiments were performed, respectively, in unidentified DRG neurons and a specific” for “A”, “of” for “of unidentified”, “neurons innervating the urinary bladder. The” for “cells and a”
# as §2
# as §3, with “performed” for “performed within 6-8 hours after cell dissociation”, “MΩ” for “M Ω”
# Inward Na^+ currents were evoked by voltage steps to +60 mV, 800 ms long from a holding potential of −90 mV. Currents were measured at the maximum (peak) and normalized to control (before addition of the compound).
# [1] = test system: delayed rectifier K^+ currents; assay: Delayed rectifier K^+ currents in Fast Blue-labeled capsaicin-sensitive bladder afferent neurons; conditions: 1.0 × 10^−6 mol/L
# Protocol: as §1, with “First and second series of the experiments were performed, respectively, in unidentified DRG neurons and a specific” for “A”, “of” for “of unidentified”, “neurons innervating the urinary bladder. The” for “cells and a”
# Freshly dissociated neurons from DRG were prepared from halothane-anesthetized animals. […]
# Dye-labeled primary afferent neurons that innervate the urinary bladder were identified using an inverted phase-contrast microscope (Nikon, Tokyo, Japan) with fluorescent attachments (UV-1A filter; excitation wavelength, 365 nm). […] All recordings were made with an Axopatch-1D patch-clamp amplifier (Axon Instruments, Foster City, Calif.), and data were acquired and analyzed by PCLAMP software (Axon Instruments).
# In voltage-clamp recordings, outward K^+ currents and inward Na^+ currents were measured. […]
smiles,measurement,setting,value
"C[C@](O)(C(=O)Nc1cccc2c1C(=O)c1sccc1CS2(=O)=O)C(F)(F)F [Compound 1, (S)-(+)-N-(5,5-dioxido-10-oxo-4,10-dihydrothieno[3,2-c][l]benzothiepin-9-yl)-3,3,3-trifluoro-2-hydroxy-2-methylpropanamide]",effect on membrane potential,DRG cells,hyperpolarization
same,Membrane potential (mV),DRG cells; 1.0 × 10^−6 mol/L,−53.67 ± 0.74 mV
same,Membrane potential (mV),DRG cells; 1.0 × 10^−7 mol/L,−57.17 ± 0.53 mV
same,Membrane potential (mV),DRG cells; 1.0 × 10^−8 mol/L,−49.80 ± 0.65 mV
same,Membrane potential (mV),DRG cells; 1.0 × 10^−9 mol/L,−48.10 ± 0.48 mV
same,Membrane potential (mV),DRG cells; 5.0 × 10^−4 mol/L,−42.67 ± 1.46 mV
same,Membrane potential (mV),DRG cells; 5.0 × 10^−5 mol/L,−48.50 ± 1.28 mV
same,Membrane potential (mV),DRG cells; 5.0 × 10^−6 mol/L,−50.50 ± 0.88 mV
same,influence upon Na^+ currents,Na^+ currents,does not exert influence
same,"Na^+ ion currents, normalized to control",Na^+ currents; 1.0 × 10^−6 mol/L,0.99 ± 0.02
same,"Na^+ ion currents, normalized to control",Na^+ currents; 5.0 × 10^−4 mol/L,1.00 ± 0.01
same,"Na^+ ion currents, normalized to control",Na^+ currents; 5.0 × 10^−5 mol/L,1.00 ± 0.01
same,"Na^+ ion currents, normalized to control",Na^+ currents; 5.0 × 10^−6 mol/L,1.00 ± 0.00
same,"Na^+ ion currents, normalized to control",Na^+ currents; 5.0 × 10^−7 mol/L,0.99 ± 0.01
same,"Na^+ ion currents, normalized to control",Na^+ currents; 5.0 × 10^−8 mol/L,0.99 ± 0.01
same,"Delayed rectifier HP: −40 mV, normalized to control",[1],1.10 ± 0.01
